Experimental data reported in EP1311531B1, “STEROID DERIVED ANTIBIOTICS” (Brigham Young University, priority 2000, dated 2002).
Converted amounts (≈) assume the structure as drawn. Read-outs that look alike come from different tables or passages of the source.

Tests used:
[1] = system: Escherichia coli ATCC 25922; assay: Sensitization to erythromycin, novobiocin or rifampicin (permeabilization, FIC); conditions: Table 13; with rifampicin (order of b151); Escherichia coli ATCC 25922
Procedure: (§4) FICs can be performed by checkerboard titrations of compounds in one dimension of a microtiter plate, and of antibiotics in the other dimension, for example. The FIC is calculated by looking at the impact of one antibiotic on the MIC of the other and vice versa. […] As used herein, FIC can be determined as follows: FIC = (MIC(compound in combination))/(MIC(compound alone)) + (MIC(antibiotic in combination))/(MIC(antibiotic alone)) [formula]
(§5) Aliquots of 1 mL of the suspension were added to test tubes containing 1 mL TSB and incrementally varied concentrations of cholic acid derivatives and/or erythromycin or novobiocin. […] Additionally, an alliquot from each of the samples showing no measurable turbidity was subcultured on TSA plates (alliquots were diluted to provide fewer than 300 CFU). Colonies that grew on the subculture after overnight incubation were counted and the number of CFU/mL in the samples were calculated. The calculated values were compared to the number of CFU/mL in the original inoculum.
(§6) Concentrations of 0.5, 1.0 or 3.0 µg/mL of these antibiotics were used, and the concentrations of the cholic acid derivatives required to inhibit bacterial growth of Gram-negative strains were determined.

[2] = Minimum hemolytic concentration (MHC); assay type: cell-based; conditions: Table 10
Procedure: Minimum inhibition concentrations (MIC) and minimum hemolytic concentrations (MHC) were measured as described in Li et al., Antimicrob. Agents. Chemother., 1999, 43, 1347. […]

[3] = system: Klebsiella pneumonia ATCC 13883; assay: Sensitization to erythromycin, novobiocin or rifampicin (permeabilization, FIC); assay type: cell-based, Klebsiella pneumoniae
[4] = system: Escherichia coli ATCC 25922; conditions: ATCC25922
Procedure: as §4, §5, §6

E. coli (ATCC 10798) = assay: Sensitization to erythromycin or novobiocin (outer membrane permeabilization, FIC); assay type: cell-based, Escherichia coli; conditions: for (a) Concentration required to lower the MIC of erythromycin from 70 to 1 µg/mL / (b) MBC with 1 µg/mL erythromycin / (d) Concentration required to lower the MIC of novobiocin from >500 to 1 µg/mL / FIC^c (FIC values with erythromycin) / FIC^c (FIC values with novobiocin): Table 9, Escherichia coli (ATCC 10798)
How it was run: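 E. coli in TSB received cholic acid derivatives, then erythromycin or novobiocin 15 minutes later, in checkerboard titration, stationary at 37°C for 24 hours. Turbidity was read at 760 nm; clear samples were subcultured on TSA for CFU/mL versus inoculum. FIC = sum of MIC-in-combination/MIC-alone ratios for compound and antibiotic.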

[5] = system: Staphylococcus aureus ATCC 25923; assay: MIC and MBC measurement; assay type: cell-based; conditions: ATCC25923, Table 10, Staphylococcus aureus ATCC 25923; for MIC: read-out: MIC
Source text: (§1) General: Microorganisms. Reference strains were purchased from the American Type Culture Collection (Rockville, MD) or Bactrol disks from Difeo Laboratories (Detroit, MI). The following specific ATCC strains were used: 10798 Escherichia coli, 25922 Escherichia coli, 13883 Klebsiella pneumoniae, 27853 Pseudomonas aeruginosa, 14028 Salmonella typhimurium, 29212 Enterococcus faecalis, 25923 Staphylococcus aureus, 19615 Streptococcus pyogenes, and 90028 Candida albicans. Bacterial strains were maintained on Mueller-Hinton agar plates, and Candida albicans was maintained on Sabouraud Dextrose agar plates.
(§2) Tryptic soy broth (TSB) was made by dissolving 27.5 grams of tryptic soy broth without dextrose (DIFCO Laboratories) in 1 liter of deionized water and sterilizing at 121 °C for 15 minutes. Solid agar (TSA) plates were made by dissolving 6.4 grams of tryptic soy broth and 12 grams of agar (purified grade, Fischer Scientific) in 800 mL of deionized water and sterilizing at 121 °C for 20 minutes. Aliquots (20 mL) of the homogeneous solution were then poured in sterile plastic petri dishes (100 x 15 mm, Fisher Scientific). Solutions of compounds were made by dissolving the HCl salt of the respective compound into an appropriate amount of deionized and sterilized water followed by microfiltration.
(§3) Aliquots of 1 mL of the suspension were added to test tubes containing 1 mL TSB and incrementally varied concentrations of cholic acid derivatives and/or erythromycin or novobiocin. In the sensitization experiments, erythromycin or novobiocin were added 15 minutes later than the cholic acid derivatives. The samples were subjected to stationary incubation at 37°C for 24 hours. Sample turbidity was determined by measuring absorption at 760 nm (HP 8453 UV-Visible Chemstation, Hewlett Packard). Additionally, an alliquot from each of the samples showing no measurable turbidity was subcultured on TSA plates (alliquots were diluted to provide fewer than 300 CFU). Colonies that grew on the subculture after overnight incubation were counted and the number of CFU/mL in the samples were calculated. The calculated values were compared to the number of CFU/mL in the original inoculum. […]

[6] = system: Escherichia coli ATCC 25922; assay: MIC and MBC measurement; assay type: cell-based; conditions: Escherichia coli, ATCC25922, Table 10, Escherichia coli ATCC 25922; for MIC: read-out: MIC
Source text: as §1, §2, §3

[7] = system: Pseudomonas aeruginosa ATCC 27853; assay: Sensitization to erythromycin, novobiocin or rifampicin (permeabilization, FIC); assay type: cell-based
[8] = system: Salmonella typhimurium ATCC 14028; assay: as above; assay type: cell-based
[9] = Table 12, with novobiocin (order of b151), Klebsiella pneumonia ATCC 13883
[10] = Table 13, with rifampicin (order of b151), Klebsiella pneumonia ATCC 13883
[11] = Table 12, with novobiocin (order of b151), Pseudomonas aeruginosa ATCC 27853
[12] = Table 13, with rifampicin (order of b151), Pseudomonas aeruginosa ATCC 27853^b (footnote b not given)
[13] = Table 11, with erythromycin (order of b151)
[14] = Table 12, with novobiocin (order of b151)

Row | Compound | FIC [1] | concentration required for bacterial growth inhibition [1] [µg/mL] | MHC [2] [µg/mL] | FIC ([3]; ATCC13883) | concentration required for bacterial growth inhibition ([3]; ATCC13883) [µg/mL] | concentration required for bacterial growth inhibition [3, 9] [µg/mL] | FIC [3, 10] | concentration required for bacterial growth inhibition [3, 10] [µg/mL] | concentration required for bacterial growth inhibition [4] [µg/mL] | (a) Concentration required to lower the MIC of erythromycin from 70 to 1 µg/mL (E. coli (ATCC 10798)) [µg/mL] | (b) MBC with 1 µg/mL erythromycin (E. coli (ATCC 10798)) [µg/mL] | (d) Concentration required to lower the MIC of novobiocin from >500 to 1 µg/mL (E. coli (ATCC 10798)) [µg/mL] | FIC^c (FIC values with erythromycin) (E. coli (ATCC 10798)) | FIC^c (FIC values with novobiocin) (E. coli (ATCC 10798)) | MBC [5] [µg/mL] | MIC [5] [µg/mL] | MBC [6] [µg/mL] | MIC [6] [µg/mL] | FIC ([7]; ATCC27853) | concentration required for bacterial growth inhibition ([7]; ATCC27853) [µg/mL] | other results
1 | CCCOCCC[C@@H](C)[C@H]1CC[C@H]2[C@@H]3[C@H](OCCCN)C[C@@H]4C[C@H](OCCCN)CC[C@]4(C)[C@H]3C[C@H](OCCCN)[C@]12C [Compound 112] | 0.19 | 0.81 | 5.9 | 0.035 | 0.1 | 0.19 | 0.031 | 0.11 | 0.40 | 0.4 | 4.0 | 0.8 | 0.048 | 0.085 | 4.2 (≈ 6.91 µM) | 0.55 (≈ 0.905 µM) | 7.4 (≈ 12.2 µM) | 6.6 (≈ 10.9 µM) | 0.59 | 1.0 | concentration required for bacterial growth inhibition [7, 11]: 0.72 µg/mL; FIC [7, 12]: 0.15; FIC [8, 13]: 0.019; concentration required for bacterial growth inhibition [8, 13]: 0.20 µg/mL; FIC [8, 14]: 0.015; concentration required for bacterial growth inhibition [8, 14]: 0.39 µg/mL
2 | C[C@]12CC[C@@H](OCCCN)C[C@H]1C[C@@H](OCCCN)[C@@H]1[C@@H]2C[C@H](OCCCN)[C@]2(C)[C@@H](O)CC[C@@H]12 [Compound 106] | 0.12 | 4.2 | >100 | 0.66 | 3.6 | 8.9 | 0.044 | 1.8 | 4.7 | 30 | 160 | 50 | 0.23 | 0.36 | 54 (≈ 109 µM) | 8.6 (≈ 17.3 µM) | 90 (≈ 182 µM) | 80 (≈ 161 µM) | 0.22 | 16 | concentration required for bacterial growth inhibition [7, 11]: 30 µg/mL; FIC [7, 12]: 0.17; FIC [8, 13]: 0.088; concentration required for bacterial growth inhibition [8, 13]: 7.1 µg/mL; FIC [8, 14]: 0.094; concentration required for bacterial growth inhibition [8, 14]: 8.4 µg/mL
3 | C[C@H](CCCO)[C@H]1CC[C@H]2[C@@H]3[C@H](OCCCN)C[C@@H]4C[C@H](OCCCN)CC[C@]4(C)[C@H]3C[C@H](OCCCN)[C@]12C [Compound 10] | 0.085 | 0.70 | 100 | 0.035 | 0.21 | 0.73 | 0.030 | 0.16 | 0.30 | 2.0 | 50 | 4.0 | 0.070 | 0.11 | 9.2 (≈ 16.3 µM) | 2 (≈ 3.53 µM) | 40 (≈ 70.7 µM) | 36 (≈ 63.6 µM) | 0.13 | 2.1 | MBC (E. coli (ATCC 10798); Escherichia coli, ATCC10798, Table 2, E. coli (ATCC 10798), with erythromycin): 50 µg/mL; concentration required to lower the MIC of erythromycin from 70 µg/mL to 1 µg/mL (E. coli (ATCC 10798); Table 2, E. coli (ATCC 10798), with erythromycin): 2 µg/mL; concentration required to lower the MIC of erythromycin from 240 µg/mL to 5 µg/mL ([7]; Table 7, P. aureginosa (ATCC 27853), with erythromycin): 7 µg/mL; concentration required for bacterial growth inhibition [7, 11]: 5.3 µg/mL; FIC [7, 12]: 0.083; FIC [8, 13]: 0.037; concentration required for bacterial growth inhibition [8, 13]: 0.87 µg/mL; FIC [8, 14]: 0.052; concentration required for bacterial growth inhibition [8, 14]: 1.8 µg/mL
